In patent publication US9585875B2, “TRPM8 antagonists” (Dompé S.P.A., priority 2011, dated 2017):

Legend:
CYP 3A4 = CYP 3A4 (Homo sapiens, UniProt P08684); assay: CYP inhibition; format: in vitro ADME
Female rats = assay: Isovolumetric bladder model; format: in vivo, rat
Description: Female rats were anesthetized with urethane. Ureters were ligated and sectioned. A catheter was inserted through the urinary meatus into the bladder before urethral ligature. […] 10 or 45 or with 100 μL of vehicle, then with 100 μL of saline every 5 min until the occurrence of rhythmic bladder contraction (RBC). A maximal volume of 3 mL was infused. The intravesical pressure was followed during 1 h30 after RBC appearance. For each group, Threshold Volume (TV), Micturition Frequency (MF) and Amplitude of Micturition (AM) were measured during the whole period. […] No effect on the total MF (measured during 90 min) was observed.

[1] = molecular target: T1, human Dopamine D3 Receptor (Homo sapiens, UniProt P35462); assay: Radioligand binding assay; settings: read-out: percentage of control binding value (% B)
T1 construct: expressed in transfected cells; host or cells: HEK293 or CHO
Description: (§1) The objective of this study was to evaluate the in vitro effects of compounds 10 and 45 on cloned human GPCRs (G-protein coupled receptors) expressed in HEK293 or CHO cells using radioligand binding assays (compound concentration=10 μM).
(§2) Three replicates were performed for each experiment.
(§3) For each assay a concentration-response curve of the appropriate reference compound was performed in each experiment. The sample radioactivity content was measured after the addition of the scintillation cocktail Microscint 20 (PerkinElmer), by a microplate scintillation Beta-counter TopCount NXT (PerkinElmer). The atomic disintegrations per minutes evaluated with the beta counter were about 15 times higher than those found using the gamma counter. Data are expressed as percentage of control binding value (% B) and test compound inhibition was considered significant when % B was <75% at 10 μM.

[2] = molecular target: T2, human Serotoninergic 5-HT1A Receptor (Homo sapiens, UniProt P08908); assay: Radioligand binding assay; settings: read-out: percentage of control binding value (% B)
T2 construct: expressed in transfected cells; host or cells: HEK293 or CHO
Description: as §1, §2, §3

Male Sprague-Dawley rats = assay: Chronic constriction injury model, mechanical allodynia (von Frey); format: in vivo, rat; settings: 10 mg/kg i.v., 2 hours post-dosing, CCI rats
Description: Male Sprague-Dawley rats were used. Under pentobarbital anesthesia, the sciatic nerve was exposed at mid-thigh level (Bennett G J et al Pain. 33: 87-107, 1988). Four ligatures were loosely tied around the sciatic nerve of the left hind limb to induce enhancement of pain caused by nerve injury. Mechanical allodynia was evaluated by using a set of 8 manual von Frey monofilaments (0.4, 0.6, 1, 2, 4, 6, 8 and 15 g) 18 days after surgery and basal response was recorded.
On day 19 body weight was recorded and compounds 10 and 45 were administered by i.v. route at the dose of 10 mg/kg. 60, 120 and 180 min post dose, mechanical allodynia was tested by evaluation of the Paw Withdrawl Threshold (PWT) and % Maximum Possible Effect (MPE) was calculated according to the following formula: […]
The mechanical allodynia was tested 1 day before treatment and at 2 hours post-dosing. One-way ANOVA followed by Dunnett's test was applied for comparison between vehicle control and test compound treated groups. *p<0.05 is considered significant.

[3] = Pharmacokinetic profile in rat; format: in vivo; settings: plasma; for half-life: iv, read-out: t1/2 i.v. rat
CYP 2C19 = CYP 2C19 (Homo sapiens, UniProt P33261); assay: CYP inhibition; format: in vitro ADME
Plasma Protein Binding [4] = format: in vitro ADME; settings: human
Log D = format: physicochemical
Microsome stability [5] = format: in vitro ADME; settings: rat
Microsome stability [6] = format: in vitro ADME; settings: human
TRPV4 = TRPV4 (Homo sapiens, UniProt Q9HBA0); assay: Calcium influx counterassay, agonist GSK1016790A; format: cell-based; settings: 10 μM GSK1016790A = 100%, read-out: Normalized % inhibition (TRPV4); for inhibition at 1 µM: Test Conc. 1 uM; for inhibition at 10 µM: Test Conc. 10 uM
Description: In parallel, the ability of each test compound to act as an antagonist of TRPV4 was evaluated with a calcium influx assay.

CYP 2D6 = CYP 2D6 (Homo sapiens, UniProt P10635); assay: CYP inhibition; format: in vitro ADME
CYP 2C9 = CYP 2C9 (Homo sapiens, UniProt P11712); assay: CYP inhibition; format: in vitro ADME
TRPV1 = TRPV1 (Homo sapiens, UniProt Q8NER1); assay: Calcium influx counterassay, agonist capsaicin; format: cell-based; settings: 0.1 μM capsaicin = 100%, read-out: Normalized % inhibition (TRPV1); for inhibition at 1 µM: Test Conc. 1 uM; for inhibition at 10 µM: Test Conc. 10 uM
Description: In order to address more specifically the potential selectivity issues, a counterassay was carried out for 10, 45 and 118 against TRPV1 and TRPV4 ion channels, both involved in the nociception (Jhaveri M D, et al 2005. Eur. J. Neurosci. 22 (2): 361-70, Brierley S M et al, 2008, Gastroenterology. 2008 June; 134(7):2059-69. ). The ability of each test compound to act as an antagonist of TRPV1 was evaluated with a calcium influx assay.

hERG channel = hERG channel (Homo sapiens, UniProt Q12809); assay: hERG binding
Plasma Protein Binding [7] = format: in vitro ADME; settings: rat
Plasma stability [8] = format: in vitro ADME; settings: rat
Plasma stability [9] = format: in vitro ADME; settings: human
[10] = intravesical, 3 times 100 μL containing 0.1 mg

Chain of TRPV4 (Q9HBA0 whole entry, species assumed): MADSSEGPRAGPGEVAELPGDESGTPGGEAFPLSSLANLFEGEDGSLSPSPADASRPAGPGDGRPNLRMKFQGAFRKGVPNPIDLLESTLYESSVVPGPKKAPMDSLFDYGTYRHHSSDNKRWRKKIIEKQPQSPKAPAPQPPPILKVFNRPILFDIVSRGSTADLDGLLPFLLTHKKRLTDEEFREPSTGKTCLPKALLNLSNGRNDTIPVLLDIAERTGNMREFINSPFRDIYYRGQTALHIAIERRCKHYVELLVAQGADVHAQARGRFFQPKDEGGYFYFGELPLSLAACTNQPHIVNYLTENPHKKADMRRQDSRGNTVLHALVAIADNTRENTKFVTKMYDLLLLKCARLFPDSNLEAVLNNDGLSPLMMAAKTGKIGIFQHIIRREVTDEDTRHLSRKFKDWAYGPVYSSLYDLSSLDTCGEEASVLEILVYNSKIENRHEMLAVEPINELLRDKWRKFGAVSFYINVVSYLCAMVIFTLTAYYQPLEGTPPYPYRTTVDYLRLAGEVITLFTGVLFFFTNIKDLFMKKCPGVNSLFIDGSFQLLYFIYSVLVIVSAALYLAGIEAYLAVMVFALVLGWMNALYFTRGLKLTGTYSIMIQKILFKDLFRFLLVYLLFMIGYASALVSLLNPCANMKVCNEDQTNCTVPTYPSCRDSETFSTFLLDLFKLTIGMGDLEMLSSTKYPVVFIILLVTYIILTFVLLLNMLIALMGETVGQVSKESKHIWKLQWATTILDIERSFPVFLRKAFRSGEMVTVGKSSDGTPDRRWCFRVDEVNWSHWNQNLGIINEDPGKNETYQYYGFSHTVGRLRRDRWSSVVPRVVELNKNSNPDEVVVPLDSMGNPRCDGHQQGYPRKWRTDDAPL
Chain of TRPV1 (Q8NER1 whole entry, species assumed): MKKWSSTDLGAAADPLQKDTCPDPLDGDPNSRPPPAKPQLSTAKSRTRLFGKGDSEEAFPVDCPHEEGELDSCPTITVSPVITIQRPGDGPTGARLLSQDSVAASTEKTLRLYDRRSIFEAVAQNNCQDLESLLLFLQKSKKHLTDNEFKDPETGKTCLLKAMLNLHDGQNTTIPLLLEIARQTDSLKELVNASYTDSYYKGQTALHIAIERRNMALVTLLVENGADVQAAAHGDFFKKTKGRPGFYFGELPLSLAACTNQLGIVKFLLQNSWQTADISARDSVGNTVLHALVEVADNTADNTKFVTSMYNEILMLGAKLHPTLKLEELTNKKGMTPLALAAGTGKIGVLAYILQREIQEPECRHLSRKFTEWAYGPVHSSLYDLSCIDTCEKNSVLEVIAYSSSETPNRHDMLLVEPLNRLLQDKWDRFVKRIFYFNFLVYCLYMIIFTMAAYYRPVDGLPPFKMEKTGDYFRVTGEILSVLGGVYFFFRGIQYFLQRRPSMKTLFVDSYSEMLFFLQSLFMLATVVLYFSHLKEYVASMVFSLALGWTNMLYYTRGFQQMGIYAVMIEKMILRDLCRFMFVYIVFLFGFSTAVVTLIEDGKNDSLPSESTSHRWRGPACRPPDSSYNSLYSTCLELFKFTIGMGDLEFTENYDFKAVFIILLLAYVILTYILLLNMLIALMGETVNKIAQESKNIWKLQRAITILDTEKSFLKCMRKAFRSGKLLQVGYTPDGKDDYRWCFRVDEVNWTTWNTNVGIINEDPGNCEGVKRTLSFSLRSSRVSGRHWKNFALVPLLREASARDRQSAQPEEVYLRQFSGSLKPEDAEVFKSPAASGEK
T2 sequence (P08908 whole entry): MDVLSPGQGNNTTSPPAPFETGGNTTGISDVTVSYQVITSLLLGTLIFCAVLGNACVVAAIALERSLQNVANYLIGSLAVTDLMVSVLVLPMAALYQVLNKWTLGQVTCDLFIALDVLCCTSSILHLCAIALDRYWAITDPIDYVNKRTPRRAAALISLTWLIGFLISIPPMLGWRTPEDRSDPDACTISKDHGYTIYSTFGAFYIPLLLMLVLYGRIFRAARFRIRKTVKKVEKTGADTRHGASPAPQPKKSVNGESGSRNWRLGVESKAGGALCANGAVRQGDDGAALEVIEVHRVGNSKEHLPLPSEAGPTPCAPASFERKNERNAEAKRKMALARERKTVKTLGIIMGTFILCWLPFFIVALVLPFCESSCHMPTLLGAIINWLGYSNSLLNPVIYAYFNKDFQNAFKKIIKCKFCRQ
Chain of CYP 2D6 (P10635 whole entry): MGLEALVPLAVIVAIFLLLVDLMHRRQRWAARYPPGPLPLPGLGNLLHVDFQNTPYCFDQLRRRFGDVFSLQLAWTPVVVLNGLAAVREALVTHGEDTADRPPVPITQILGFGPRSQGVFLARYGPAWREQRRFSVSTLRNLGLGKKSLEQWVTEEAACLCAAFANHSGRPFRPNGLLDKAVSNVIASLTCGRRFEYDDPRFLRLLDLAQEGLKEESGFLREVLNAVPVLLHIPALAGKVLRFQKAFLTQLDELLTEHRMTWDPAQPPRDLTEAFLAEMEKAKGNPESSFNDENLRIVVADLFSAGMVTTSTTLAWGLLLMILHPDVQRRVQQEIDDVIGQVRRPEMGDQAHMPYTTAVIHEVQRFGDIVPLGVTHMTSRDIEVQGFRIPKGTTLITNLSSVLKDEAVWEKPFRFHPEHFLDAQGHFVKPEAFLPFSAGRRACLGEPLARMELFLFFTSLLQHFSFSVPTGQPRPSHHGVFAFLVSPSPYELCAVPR
Chain of CYP 3A4 (P08684 whole entry): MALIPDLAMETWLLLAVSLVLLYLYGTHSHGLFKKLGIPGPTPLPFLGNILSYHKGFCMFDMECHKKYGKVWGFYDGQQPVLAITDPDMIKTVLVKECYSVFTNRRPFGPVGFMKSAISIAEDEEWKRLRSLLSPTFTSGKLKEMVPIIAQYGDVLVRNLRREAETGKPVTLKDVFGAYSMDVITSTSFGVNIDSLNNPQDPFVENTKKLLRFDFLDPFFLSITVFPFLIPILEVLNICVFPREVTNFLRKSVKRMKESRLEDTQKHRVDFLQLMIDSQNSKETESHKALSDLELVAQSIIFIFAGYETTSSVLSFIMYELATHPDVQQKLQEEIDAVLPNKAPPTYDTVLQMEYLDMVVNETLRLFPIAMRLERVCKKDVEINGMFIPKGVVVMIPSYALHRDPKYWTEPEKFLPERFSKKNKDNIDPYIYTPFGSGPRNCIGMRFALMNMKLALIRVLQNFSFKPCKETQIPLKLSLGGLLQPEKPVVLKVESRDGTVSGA
T1 sequence (P35462 whole entry): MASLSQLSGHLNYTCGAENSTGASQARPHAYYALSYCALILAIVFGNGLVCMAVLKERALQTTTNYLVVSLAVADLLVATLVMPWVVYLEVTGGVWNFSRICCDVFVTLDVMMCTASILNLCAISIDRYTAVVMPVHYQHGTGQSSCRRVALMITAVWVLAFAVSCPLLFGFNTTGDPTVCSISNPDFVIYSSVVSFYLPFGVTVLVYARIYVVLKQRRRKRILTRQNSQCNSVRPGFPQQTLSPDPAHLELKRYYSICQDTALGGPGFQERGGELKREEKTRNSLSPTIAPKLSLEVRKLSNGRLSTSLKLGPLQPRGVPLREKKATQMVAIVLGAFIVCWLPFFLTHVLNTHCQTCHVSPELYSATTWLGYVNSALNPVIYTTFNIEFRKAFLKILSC
Chain of CYP 2C9 (P11712 whole entry): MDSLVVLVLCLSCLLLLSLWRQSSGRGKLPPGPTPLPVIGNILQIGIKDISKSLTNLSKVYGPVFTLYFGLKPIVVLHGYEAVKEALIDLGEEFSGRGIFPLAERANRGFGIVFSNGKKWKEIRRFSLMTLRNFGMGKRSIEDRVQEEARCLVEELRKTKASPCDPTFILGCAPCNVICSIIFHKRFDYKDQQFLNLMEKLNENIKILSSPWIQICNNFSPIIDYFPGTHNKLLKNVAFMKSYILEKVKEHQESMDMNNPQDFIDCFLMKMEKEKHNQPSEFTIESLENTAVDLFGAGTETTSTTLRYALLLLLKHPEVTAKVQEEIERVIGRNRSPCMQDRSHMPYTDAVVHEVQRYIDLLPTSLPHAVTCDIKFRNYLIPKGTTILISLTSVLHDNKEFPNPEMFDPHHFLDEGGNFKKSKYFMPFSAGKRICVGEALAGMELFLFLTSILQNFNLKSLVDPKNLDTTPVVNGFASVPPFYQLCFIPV
Chain of CYP 2C19 (P33261 whole entry): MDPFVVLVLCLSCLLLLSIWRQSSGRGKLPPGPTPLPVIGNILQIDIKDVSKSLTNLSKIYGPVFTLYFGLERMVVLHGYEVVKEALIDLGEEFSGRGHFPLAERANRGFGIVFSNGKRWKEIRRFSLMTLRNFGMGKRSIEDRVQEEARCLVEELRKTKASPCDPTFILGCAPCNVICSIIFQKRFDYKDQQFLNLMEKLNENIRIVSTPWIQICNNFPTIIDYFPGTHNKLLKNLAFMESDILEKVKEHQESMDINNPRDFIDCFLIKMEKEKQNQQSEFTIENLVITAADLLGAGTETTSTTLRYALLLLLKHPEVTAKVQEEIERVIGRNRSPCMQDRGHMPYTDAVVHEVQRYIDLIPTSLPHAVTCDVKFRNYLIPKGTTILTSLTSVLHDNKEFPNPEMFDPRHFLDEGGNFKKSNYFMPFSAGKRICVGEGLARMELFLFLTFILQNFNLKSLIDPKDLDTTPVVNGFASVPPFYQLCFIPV

CYP (% inhibition) @10 μM, 3A4 (CYP 3A4)	remaining activity at 10 µM [1]	remaining activity at 10 µM [2]	half-life [3]	CYP (% inhibition) @10 μM, 2C19 (CYP 2C19)	fraction unbound at 10 μM (Plasma Protein Binding [4])	logD (Log D)	inhibition at 1 µM (TRPV4)	inhibition at 10 µM (TRPV4)	CYP (% inhibition) @10 μM, 2D6 (CYP 2D6)	CYP (% inhibition) @10 μM, 2C9 (CYP 2C9)	inhibition at 1 µM (TRPV1)	inhibition at 10 µM (TRPV1)	fraction unbound at 10 μM (Plasma Protein Binding [7])	Structure (SMILES)	anti-allodynic activity, mechanical allodynia (PWT, % MPE) (Male Sprague-Dawley rats)	hERG binding @10 μM (hERG channel)	also measured
<5%	87%	100%	0.833 h	<5%	0.03	1.59	2%	8.9%	<5%	<5%	1.2%	2.3%	0.02	CCOC(=O)c1sc(-c2cccc(F)c2)nc1O [Compound 10, ethyl 2-(3-fluorophenyl)-4-hydroxy-1,3-thiazole-5-carboxylate]	significant anti-allodynic activity	No effect	reduction of Micturition Frequency (MF) (Female rats; 10 mg/kg i.v., first 30 min of the experiment): about 36%; continuous rhythmic bladder contraction (RBC) induced by filling with saline (Female rats; intravesical route, 2.3 mg/rat): completely abolished; Amplitude of Micturition (AM) (Female rats; [10]): did not change; Threshold Volume (TV) (Female rats; [10]): 1.5 mL; effect on the total Micturition Frequency (MF) (Female rats; intravesical, 3 times 100 μL containing 0.1 mg, measured during 90 min): No effect; log D values (Log D): low; Microsome stability (% remaining) @1 μM (Microsome stability [5]): 4%; Microsome stability (% remaining) @1 μM (Microsome stability [6]): 5%
<5%	97.2%	100%	4 h	<5%	0.01	2.7	5.1%	3.1%	<5%	<5%	3.1%	6.3%	0.01	O=C(O)c1sc(-c2ccc(Cl)cc2)nc1OCc1ccc(Cl)cc1 [Compound 45, 4-[(4-chlorobenzyl)oxy]-2-(4-chlorophenyl)-1,3-thiazole-5-carboxylic acid]	significant anti-allodynic activity	No effect	bioavailability ([3]; oral bioavailability): 60%; Plasma stability (% remaining) @10 μM (Plasma stability [8]): 9%; Plasma stability (% remaining) @10 μM (Plasma stability [9]): 1%
